Experimental data taken from patent US10414759B2, “Phenylthiazoles and uses thereof” (Purdue Research Foundation, priority 2017, dated 2019).
Values after ≈ are worked out from the molar mass of the structure shown. Read-outs that look alike come from different tables or passages of the source.

System: MRSA (2658 RCMB)
Assay: MIC against MRSA (2658 RCMB), broth dilution
Format: cell-based, Staphylococcus aureus
Details: for MIC ± SD / MIC / minimum inhibitory concentration (MIC): MRSA (2658 RCMB); for MIC: Staphylococcus aureus
Description: Bacteria were cultured in cation-adjusted Mueller Hinton broth in a 96-well plate. Compounds, using triplicate samples, were added to the plate and serially diluted. […] Plates were visually inspected and the MIC was categorized as the concentration at which no visible growth of bacteria was observed. The average of triplicate MIC determinations is reported.
A bacterial solution equivalent to 0.5 McFarland standard was prepared and diluted in cation-adjusted Mueller-Hinton broth (CAMHB) to achieve a bacterial concentration of about 5×10^5 CFU/mL and seeded in 96-well plates. Enterococcus faecium was diluted in brain heart infusion broth. Enterococcus faecalis, Streptococcus pneumonia and Listeria monocytogenes were diluted in tryptone soya broth (TSB).

[1] = Table 7, initial screening, read-out: minimum inhibitory concentration (MIC)

MIC [1] [µg/mL]	SMILES	other results
–	CCCCc1ccc(-c2nc(C)c(-c3ccnc(-c4cccnc4)n3)s2)cc1 [Compound 13, 2-(4-Butylphenyl)-4-methyl-5-[2-(38yridine-3-yl)pyrimidin-4-yl]thiazole]	antibacterial (anti-MRSA) activity, in words (Table 1): exhibited no antibacterial activity; MIC ± SD (Table 1): 17.2 ± 0.4 µg/mL (≈ 44.5 µM)
–	CCCCc1ccc(-c2nc(C)c(-c3ccn4ncnc4n3)s2)cc1 [Compound 16, 5-([1,2,4]Triazolo[1,5-a]pyrimidin-5-yl)-2-(4-butylphenyl)-4-methylthiazole]	MIC (Table 1, read-out: MIC ± SD): > 25 µg/mL
–	CCCCc1ccc(-c2nc(C)c(-c3ccnc(NC(=N)N)n3)s2)cc1 [Compound 18, 2-(4-Butylphenyl)-5-(2-guanidinylpyrimidin-4-yl)-4-methylthiazole]	MIC (Table 1, read-out: MIC ± SD): 1.56 µg/mL (≈ 4.26 µM); MIC ± SD (Table 1): 1.56 ± 0.10 µg/mL (≈ 4.26 µM)
–	CCCCc1ccc(-c2nc(C)c(-c3ccnc(N=C(N(C)C)N(C)C)n3)s2)cc1 [Compound 19, 2-{4-[42-(4-Butylphenyl)-4-methylthiazol-5-yl]pyrimidin-2-yl}-1,1,3,3-tetramethyl guanidine]	antibacterial (anti-MRSA) activity, in words (Table 1): revealed no antibacterial efficacy; MIC ± SD (Table 1): >25 µg/mL
–	Cc1nc(-c2ccc(I)cc2)sc1-c1ccnc(N)n1 [Compound 23, 4-[2-(4-Iodophenyl)-4-methylthiazol-5-yl]pyrimidin-2-amine]	MIC (Table 1, read-out: MIC ± SD): > 25 µg/mL
6.25 (≈ 19.3 µM)	Cc1nc(-c2ccc(C(C)(C)C)cc2)sc1-c1ccnc(N)n1 [Compound 40, 4-(2-(4-(tert-Butyl)phenyl)-4-methylthiazol-5-yl)pyrimidin-2-amine]	–
25 (≈ 73.9 µM)	CNc1nccc(-c2sc(-c3ccc(C(C)(C)C)cc3)nc2C)n1 [Compound 41, 4-(2-(4-(tert-Butyl)phenyl)-4-methylthiazol-5-yl)-N-methylpyrimidin-2-amine]	–
–	Cc1nc(-c2ccc(C(C)(C)C)cc2)sc1-c1ccnc(N2CCCC2)n1 [Compound 42]	minimum inhibitory concentration (MIC) (Table 7, initial screening): >50 µg/mL
> 50	Cc1nc(-c2ccc(C(C)(C)C)cc2)sc1-c1ccnc(-c2cccnc2)n1 [Compound 43, 2-(4-(tert-Butyl)phenyl)-4-methyl-5-(2-(pyridin-3-yl)pyrimidin-4-yl)thiazole]	–
> 50	Cc1nc(-c2ccc(C(C)(C)C)cc2)sc1-c1ccnc(N(C)C)n1 [Compound 50, 4-(2-(4-(tert-Butyl)phenyl)-4-methylthiazol-5-yl)-N,N-dimethylpyrimidin-2-amine]	–
> 50	Cc1nc(-c2ccc(C(C)(C)C)cc2)sc1-c1ccnc(N2CCC2)n1 [Compound 51, 5-(2-(Azetidin-1-yl)pyrimidin-4-yl)-2-(4-(tert-butyl)phenyl)-4-methylthiazole]	–
25 (≈ 63.4 µM)	Cc1nc(-c2ccc(C(C)(C)C)cc2)sc1-c1ccnc(N2CCOCC2)n1 [Compound 52, 4-(4-(2-(4-(tert-Butyl)phenyl)-4-methylthiazol-5-yl)pyrimidin-2-yl) morpholine]	–
6.25 (≈ 16.4 µM)	Cc1nc(-c2ccc(C(C)(C)C)cc2)sc1-c1ccnc(N2CC(O)C2)n1 [Compound 53, 1-(4-(2-(4-(tert-Butyl)phenyl)-4-methylthiazol-5-yl)pyrimidin-2-yl)azetidin-3-ol]	–
1.56 (≈ 4.6 µM)	Cc1nc(-c2ccc(C(C)(C)C)cc2)sc1-c1ccnc(NN)n1 [Compound 55, 2-(4-(tert-Butyl)phenyl)-5-(2-hydrazinylpyrimidin-4-yl)-4-methylthiazole]	–
1.56 (≈ 4.26 µM)	Cc1nc(-c2ccc(C(C)(C)C)cc2)sc1-c1ccnc(NC(=N)N)n1 [Compound 56, 1-(4-(2-(4-(tert-Butyl)phenyl)-4-methylthiazol-5-yl)pyrimidin-2-yl)guanidine]	–
1.56 (≈ 4.1 µM)	CNC(=N)Nc1nccc(-c2sc(-c3ccc(C(C)(C)C)cc3)nc2C)n1 [Compound 57, 1-(4-(2-(4-(tert-Butyl)phenyl)-4-methylthiazol-5-yl)pyrimidin-2-yl)-3-methylguanidine]	–
–	Cc1nc(-c2ccc(C(C)(C)C)cc2)sc1-c1ccnc(N=C(N(C)C)N(C)C)n1 [Compound 59, N-2-(4-(2-(4-(tert-Butyl)phenyl)-4-methylthiazol-5-yl)pyrimidin-2-yl)-1,1,3,3-tetramethylguanidine]	minimum inhibitory concentration (MIC) (Table 7, initial screening): >50 µg/mL
